Values quoted from earlier work as cited in article PMC11417994, “Cyclohexanediamine Triazole (CHDT) Functionalization Enables Labeling of Target Molecules with Al^18F/^68Ga/^111In” (Bioconjugate Chemistry, 2024).

Legend:
[1] = same conditions; cited from earlier work
PSMA = molecular target: PSMA; parameters: method as in PMID 22369515; details: cited from earlier work

O=C(O)CN1CCN(CC(=O)O)CCN(CC(=O)O)CC1 [NOTA]
64Cu-transchelation in human serum [1]: only minimal

O=C(O)CCc1ccc(O)c(CN(CCN(CC(=O)O)Cc2cc(CCC(=O)NCCCCCC(=O)NCCCC[C@H](NC(=O)N[C@@H](CCC(=O)O)C(=O)O)C(=O)O)ccc2O)CC(=O)O)c1 [PSMA-11]
Ki (PSMA): 12 nM

O=C(O)CN1CCCN(CC(=O)O)CCN(CC(=O)O)CCCN(CC(=O)O)CC1 [TETA]
64Cu-transchelation in human serum [1]: only minimal

NC12CNCCNCC(N)(CNCCNC1)CNCCNC2 [diamSar]
64Cu-transchelation in human serum [1]: only minimal
